Results: paper PMC8145641 (Cells, 2021)
Converted amounts (≈) assume the structure as drawn.

Assays:
[1] = tested on: Hs27 (human foreskin fibroblast); test: Cytotoxicity assay (MTT); format: cell-based; conditions: 24 h treatment
T. gondii = conditions: values from the earlier paper; ref [25]; cited from earlier work
T. gondii RH-GFP = test: microbe, parasite or virus in culture; format: cell-based, Toxoplasma gondii; conditions: for IC50: Toxoplasma gondii, HS27, 96 h, read-out: IC50 (50% inhibition of T. gondii proliferation); for SI (selectivity index, CC30/IC50): ratio of CC30 (Hs27) to IC50 (T. gondii), 1b–12b and positive controls
Description: Cell and parasite culture: The Hs27 (human foreskin fibroblast) (ATCC® CRL-1634™) (ATCC, Manassas, VA, USA) were culturing in DMEM (Dulbecco’s modified Eagle’s medium-ATCC® 30-2002™, ATCC) supplemented with 10% fetal bovine serum (fetal bovine serum, ATCC® 30-2020™, ATCC), 100 I.U./mL penicillin and 100 μg/mL streptomycin (penicillin-streptomycin solution ATCC® 30-2300™, ATCC). Cells were trypsinized (Trypsin-EDTA Solution ATCC® 30-2101™, ATCC) twice a week and seeded at a density of 1 × 10^6 per T25 cell culture flask and incubated in a 37 °C and 5% CO2 to achieve a confluent monolayer. The RH strain of Toxoplasma gondii (RH-GFP ATCC® 50940™, ATCC, highly virulent, haplogroup first, expression of green fluorescent protein) was maintained as tachyzoites, in parasite culture medium, which contains DMEM medium with 3% HIFBS (heat-inactivated FBS; 1 h in 56 °C). Infected tissue culture cells were incubated in a 37 °C and 5% CO2.
After 72 h of incubation, the medium was removed and then 1 × 10^5 per well of tachyzoites of the RH strain were added to the cell monolayers, in DMEM without phenol red with 3% HIFBS. One hour later, the compounds and drugs dilutions in the DMEM without phenol red medium were added to the Hs27 cells with T. gondii. Concentration of the compounds below cytotoxic concentration (<CC30), sulfadiazine 0–10,000 μM and trimethoprim, pyrimethamine and atovaquone 0–200 μM. After a subsequent 96 h of incubation, the plates were read with covered lids, and both excitation (475 nm) and emission (509 nm) from the bottom using multimode microplate reader SpectraMax® i3. The results were expressed as mean fluorescent intensity (MFI) and transformed to the percentage of viability compared to untreated cells. Finally, the inhibitory concentrations for 50% inhibition of T. gondii proliferation (IC50) were calculated. All experiments were performed in triplicate.
Graphs and statistical analyses: Statistical analyses and graphs were performed using GraphPad Prism version 9.0.0 for macOS (GraphPad Software, San Diego, CA, USA). […] Additionally, a relationship between cytotoxicity and antiparasitic activity were calculated as the ratio of the 30% cytotoxic concentration (CC30) to the 50% antiparasitic concentration (IC50) and presented as the selectivity index (SI).

[2] = tested on: tachyzoites of the RH-GFP strain; test: Influence of compounds during Toxoplasma growth, Assay A (invasion); format: cell-based, Toxoplasma gondii; conditions: compound at IC50 present 3 h during infection, washed, 24 h free medium; vs non-treated
Description: (§1) Influence of Compounds during Toxoplasma Growth (Assay A and B): Hs27 cells were cultured on Lab-Tek™ 4-well Chamber Slides (Nunc, Thermo Fisher Scientific, Waltham, MA, USA) (5 × 10^4 cells/500 μL per well).
Assay A—after 48 h, the medium was removed and then 5 × 10^5/500 µL/well tachyzoites of the RH-GFP strain were added to the cell monolayers, in parasite culture medium with the selected compounds at IC50 concentration: 2b, 5b, 8b, 11b or 12b, for 3 h. Then, the cells were washed to remove extracellular parasites and parasite culture medium (without any compounds) was added for 24 h.
(§2) In both assays as the controls, Hs27 cells were infected, but not treated. After subsequent 24 h of incubation (Assay A and B), the slides were washed with sterile PBS, fixed with formaldehyde solution (252549, Sigma-Aldrich), 3.7% in PBS for 20 min and stained with DAPI for 10 min (1 mg/mL, ThermoFisher Scientific). Microscopic analysis of 100 cells in turn, comprised of counting the infected cell ratio and tachyzoites per each parasitophorous vacuoles of infected cell, was performed using a fluorescent microscope (Axio Scope.A1, Carl Zeiss, Jena, Germany) at a magnification ×1000. For image processing ZEISS ZEN Microscope Software version 3.1 was used. Three independent experiments on triplicate chamber slides using the same conditions for both assays were performed.

[3] = tested on: tachyzoites of the RH-GFP strain; test: Influence of compounds during Toxoplasma growth, Assay B (intracellular proliferation); format: cell-based, Toxoplasma gondii; conditions: 3 h infection without compound, washed, 24 h with compound at IC50
Description: as §1
Assay B—after 48 h, the medium was removed and then 5 × 10^5/500 µL/well tachyzoites of the RH-GFP strain were added to the cell monolayers, in parasite culture medium for 3 h.
as §2

Compound	CC30 (cytotoxic concentration causing 30% of cells proliferation inhibition) [1]	IC50 (50% inhibition of T. gondii proliferation) (T. gondii)	IC50 (T. gondii RH-GFP)	number of tachyzoites per vacuole (Assay A) [2]	percentage of infected cells (Assay A) [2]	number of intravacuolar tachyzoites (Assay B) [3]	percentage of infected cells (Assay B) [3]	size of parasitophorous vacuole (Assay B) [3]	SI (selectivity index, CC30/IC50) (T. gondii RH-GFP)
Cc1nc[nH]c1C(=O)NNC(=S)Nc1ccccc1F [1a]	289.60 µg/mL	68.83 µg/mL	–	–	–	–	–	–	–
Cc1nc[nH]c1-c1nnc(Nc2ccccc2F)s1 [1b]	157.71 µg/mL	–	26.2 µg/mL (≈ 95.1 µM)	–	–	–	–	–	–
Cc1nc[nH]c1C(=O)NNC(=S)Nc1cccc(F)c1 [2a]	125.17 µg/mL	113.45 µg/mL	–	–	–	–	–	–	–
Cc1nc[nH]c1-c1nnc(Nc2cccc(F)c2)s1 [2b]	18.96 µg/mL	–	7.04 µg/mL (≈ 25.6 µM)	significant reductions	significant reductions	significant reduction	still the same	significant reduction	2.69
Cc1nc[nH]c1C(=O)NNC(=S)Nc1ccc(F)cc1 [3a]	266.20 µg/mL	110.31 µg/mL	–	–	–	–	–	–	–
Cc1nc[nH]c1-c1nnc(Nc2ccc(F)cc2)s1 [3b]	26.17 µg/mL	–	11.4 µg/mL (≈ 41.5 µM)	–	–	–	–	–	2.29
Cc1nc[nH]c1C(=O)NNC(=S)Nc1ccccc1Cl [4a]	143.15 µg/mL	35.61 µg/mL	–	–	–	–	–	–	–
Cc1nc[nH]c1-c1nnc(Nc2ccccc2Cl)s1 [4b]	24.69 µg/mL	–	12.4 µg/mL (≈ 42.4 µM)	–	–	–	–	–	2.00
Cc1nc[nH]c1C(=O)NNC(=S)Nc1cccc(Cl)c1 [5a]	96.78 µg/mL	24.15 µg/mL	–	–	–	–	–	–	–
Cc1nc[nH]c1-c1nnc(Nc2cccc(Cl)c2)s1 [5b]	17.88 µg/mL	–	3.65 µg/mL (≈ 12.5 µM)	significant reductions	significant reductions	significant reduction	still the same	significant reduction	4.90
Cc1nc[nH]c1C(=O)NNC(=S)Nc1ccc(Cl)cc1 [6a]	94.12 µg/mL	73.37 µg/mL	–	–	–	–	–	–	–
Cc1nc[nH]c1-c1nnc(Nc2ccc(Cl)cc2)s1 [6b]	45.97 µg/mL	–	8.36 µg/mL (≈ 28.7 µM)	–	–	–	–	–	5.50
Cc1nc[nH]c1C(=O)NNC(=S)Nc1ccccc1Br [7a]	205.31 µg/mL	27.65 µg/mL	–	–	–	–	–	–	–
Cc1nc[nH]c1-c1nnc(Nc2ccccc2Br)s1 [7b]	29.71 µg/mL	–	8.77 µg/mL (≈ 26.1 µM)	–	–	–	–	–	3.39
Cc1nc[nH]c1C(=O)NNC(=S)Nc1cccc(Br)c1 [8a]	96.12 µg/mL	15.64 µg/mL	–	–	–	–	–	–	–
Cc1nc[nH]c1-c1nnc(Nc2cccc(Br)c2)s1 [8b]	20.55 µg/mL	–	3.83 µg/mL (≈ 11.4 µM)	significant reductions	significant reductions	significant reduction	still the same	significant reduction	5.37
Cc1nc[nH]c1C(=O)NNC(=S)Nc1ccc(Br)cc1 [9a]	48.89 µg/mL	14.57 µg/mL	–	–	–	–	–	–	–
Cc1nc[nH]c1-c1nnc(Nc2ccc(Br)cc2)s1 [9b]	21.52 µg/mL	–	5.41 µg/mL (≈ 16.1 µM)	–	–	–	–	–	3.98
Cc1nc[nH]c1C(=O)NNC(=S)Nc1ccccc1I [10a]	101.58 µg/mL	20.31 µg/mL	–	–	–	–	–	–	–
Cc1nc[nH]c1-c1nnc(Nc2ccccc2I)s1 [10b]	89.54 µg/mL	–	11 µg/mL (≈ 28.8 µM)	–	–	–	–	–	8.13
Cc1nc[nH]c1C(=O)NNC(=S)Nc1cccc(I)c1 [11a]	85.57 µg/mL	10.30 µg/mL	–	–	–	–	–	–	–
Cc1nc[nH]c1-c1nnc(Nc2cccc(I)c2)s1 [11b]	36.48 µg/mL	–	4.49 µg/mL (≈ 11.7 µM)	significant reductions	significant reductions	significant reduction	still the same	significant reduction	8.13
Cc1nc[nH]c1C(=O)NNC(=S)Nc1ccc(I)cc1 [12a]	71.58 µg/mL	22.01 µg/mL	–	–	–	–	–	–	–
